According to US6710044B2, “Technical field” (NeuroSearch A/S, priority 1996, dated 2004):
pIC50: −log10 of the molar value. Several values for one entry are separate records, joined by “and”; a condition that tells them apart may be missing. Equal values may be shown once.

Test system: not given
Experiment: not given
Settings: not given

Row | SMILES | melting point
1 | N#Cc1ccc2c(c1)ncn2-c1cccc(N2CCCCC2)c1 | 106 to 108 °C
2 | CN1CCN(c2cccc(-n3cnc4cc(C#N)ccc43)c2)CC1 | 177 to 179 °C
3 | CN1CCCC(c2cccc(-n3cnc4cc(C#N)ccc43)c2)C1.Cl (stereo not drawn) | 158 to 160 °C
4 | ON=Cc1ccc2c(c1)ncn2-c1cccc(N2CCCCC2)c1 | 213 to 214 °C
5 | ON=Cc1ccc2c(c1)ncn2-c1cccc(N2CCCC2)c1 | 242 to 244 °C
6 | CN1CCN(c2cccc(-n3cnc4cc(C=NO)ccc43)c2)CC1 | 224 to 227 °C
7 | CC(C)ON=Cc1ccc2c(c1)ncn2-c1cccc(N2CCCCC2)c1 | 127 to 128 °C
8 | CON=Cc1ccc2c(c1)ncn2-c1cccc(N2CCCCC2)c1 | 107 to 108 °C
9 | CC(=O)c1ccc2c(c1)ncn2-c1cccc(N2CCN(C(C)=NO)CC2)c1 | 240 to 241 °C
10 | CCON=C(C)c1ccc2c(c1)ncn2-c1cccc(N2CCN(C)CC2)c1.Cl | 62 to 63 °C
11 | CCON=C(C)c1ccc2c(c1)ncn2-c1cccc(N2CCCC2)c1 | 118 to 120 °C
12 | CCON=C(C)c1ccc2c(c1)ncn2-c1cccc(N2CCCCC2)c1 | 88 to 89 °C
13 | CC(=NOC(C)C)c1ccc2c(c1)ncn2-c1cccc(C2CCCN(C)C2)c1.Cl (stereo not drawn) | 48 to 55 °C
14 | CC(=NOC(C)C)c1ccc2c(c1)ncn2-c1cccc(N2CCN(CCO)CC2)c1.Cl | 165 to 169 °C
15 | CC(=O)c1ccc2c(c1)ncn2-c1cccc(N2CCN(C(C)=NOC(C)C)CC2)c1.Cl | 160 to 163 °C
16 | CN1CCN(c2cccc(-n3cnc4cc(-c5ccoc5)ccc43)c2)CC1 | 129 to 130 °C
17 | CN1CCCC(c2cccc(-n3cnc4cc(-c5ccoc5)ccc43)c2)C1 (stereo not drawn) | 96 to 97 °C
18 | CN1CCN(c2cccc(-n3cnc4cc(-c5ccccc5)ccc43)c2)CC1 | 131 to 132 °C
19 | CN1CCCC(c2cccc(-n3cnc4cc(-c5ccccc5)ccc43)c2)C1 (stereo not drawn) | 42 to 44 °C
20 | CN1CCCC(c2cccc(-n3cnc4cc(-c5nc(C6CC6)no5)ccc43)c2)C1.Cl (stereo not drawn) | 184 to 190 °C
21 | CN1CCCC(c2cccc(-n3cnc4cc(C(C)(C)C)ccc43)c2)C1.Cl (stereo not drawn) | 200 °C
22 | CCOC(=O)c1ccc2c(c1)ncn2-c1cccc(N2CCN(C)CC2)c1 | 86 to 87 °C

Row | SMILES | melting point
23 | CCOC(=O)c1ccc2c(c1)ncn2-c1cccc(N2CCN(CCO)CC2)c1.Cl | 233 to 236 °C
24 | CCOC(=O)c1ccc2c(c1)ncn2-c1cccc(N2CCN(C(C)=O)CC2)c1 | 155 to 156 °C
25 | CCOC(=O)CN1CCN(c2cccc(-n3cnc4cc(C(=O)OCC)ccc43)c2)CC1.Cl | 196 to 200 °C
26 | CCOC(=O)C=Cc1ccc2c(c1)ncn2-c1cccc(N2CCCCC2)c1 | 85 to 87 °C
27 | CCOC(=O)C=Cc1ccc2c(c1)ncn2-c1cccc(N2CCN(C)CC2)c1 | 133 to 134 °C
28 | COC(=O)C=Cc1ccc2c(c1)ncn2-c1cccc(N2CCN(C)CC2)c1 | 138 to 140 °C
29 | COC(=O)c1ccc2c(c1)ncn2-c1cccc(C2CN(C(C)=O)CCN2)c1 (stereo not drawn) | 189 to 191 °C
30 | COC(=O)c1ccc2c(c1)ncn2-c1cccc(N2CCN(C)CC2)c1 | 119 to 121 °C
31 | CC(C)OC(=O)c1ccc2c(c1)ncn2-c1cccc(N2CCCCC2)c1 | 160 to 161 °C
32 | CCCOC(=O)c1ccc2c(c1)ncn2-c1cccc(N2CCCC2)c1 | 170 to 172 °C
33 | CC(C)OC(=O)c1ccc2c(c1)ncn2-c1cccc(N2CCN(C)CC2)c1 | 110 to 111 °C
34 | CN1CCCC(c2cccc(-n3cnc4cc(C(=O)OCC5CC5)ccc43)c2)C1 (stereo not drawn) | 111 to 113 °C
35 | CCOC(=O)Cc1ccc2c(c1)ncn2-c1cccc(N2CCN(C)CC2)c1.Cl | 180 to 182 °C
36 | CC(=O)c1ccc2c(c1)ncn2-c1cccc(C(=NOC(C)C)OC2CCN(C)CC2)c1 | 106 to 107 °C
37 | CC(=O)c1ccc2c(c1)ncn2-c1cccc(C(=NOC(C)C)OC2CCCN(C)C2)c1 (stereo not drawn) | 83 to 84 °C
38 | CCOC(=O)CON=C(C)c1ccc2c(c1)ncn2-c1cccc(C2CCCN(C)C2)c1.Cl (stereo not drawn) | 73 to 75 °C
39 | COC(=O)CON=C(C)c1ccc2c(c1)ncn2-c1cccc(C2CCCN(C)C2)c1 (stereo not drawn) | 104 to 106 °C
40 | COC(=O)C(C)(C)ON=C(C)c1ccc2c(c1)ncn2-c1cccc(C2CCCN(C)C2)c1 (stereo not drawn) | 113 to 116 °C and 113 to 115 °C
41 | CCOC(CN1CCN(c2cccc(-n3cnc4cc(C(C)=O)ccc43)c2)CC1)=NO | 154 to 156 °C
42 | COC(=O)C(C)(C)ON=C(C)N1CCN(c2cccc(-n3cnc4cc(C(C)=O)ccc43)c2)CC1 | 119 to 120 °C
43 | COC(=O)CON=C(C)N1CCN(c2cccc(-n3cnc4cc(C(C)=O)ccc43)c2)CC1 | 137 to 139 °C
44 | CCCON=C(CN1CCN(c2cccc(-n3cnc4cc(C(C)=O)ccc43)c2)CC1)OC | 120 to 122 °C

Row | SMILES | melting point
45 | CCOC(=O)C(=CN1CCN(c2cccc(-n3cnc4cc(C(C)=O)ccc43)c2)CC1)C(=NOC(C)C)OCC | 128 to 129 °C
46 | COC(=O)C(C)(C)ON=Cc1ccc2c(c1)ncn2-c1cccc(N2CCN(C)CC2)c1.Cl | 199 to 201 °C
47 | COC(=O)c1cccc(-n2cnc3cc(-c4ccno4)ccc32)c1 | 190 to 191 °C
48 | CCOC(=O)c1cccc(-n2cnc3cc(-c4ccccc4)ccc32)c1 | 122 to 123 °C
49 | Cl.O=C(OCc1cccnc1)c1cccc(-n2cnc3cc(-c4ccccc4)ccc32)c1 | 195 to 197 °C
50 | CN1CCCC(OC(=O)c2cccc(-n3cnc4cc(-c5ccccc5)ccc43)c2)C1.Cl (stereo not drawn) | 180 to 191 °C
51 | CN1CCC(OC(=O)c2cccc(-n3cnc4cc(-c5ccccc5)ccc43)c2)CC1.Cl | 187 to 188 °C
52 | CCOC(=O)c1cccc(-n2cnc3cc(-c4ccoc4)ccc32)c1 | 87 to 89 °C
53 | CCOC(=O)c1cccc(-n2cnc3cc(C4CCOC4)ccc32)c1.Cl (stereo not drawn) | 168 to 171 °C
54 | CCOC(=O)CN1CCN(c2cccc(-n3cnc4cc(-c5ccoc5)ccc43)c2)CC1 | 110 to 112 °C
55 | CC(C)(C)OC(=O)N1CCN(c2cccc(-n3cnc4cc(-c5ccoc5)ccc43)c2)CC1 | 162 to 164 °C
56 | COC(=O)CN1CCN(c2cccc(-n3cnc4cc(-c5ccoc5)ccc43)c2)CC1 | 124 to 125 °C
57 | COC(=O)C=CN1CCN(c2cccc(-n3cnc4cc(-c5ccoc5)ccc43)c2)CC1 | 131 to 133 °C
58 | N#Cc1ccc2c(c1)ncn2-c1cccc(N2CCCC2)c1 [compound 3a2, 5-Cyano-1-(3-(1-pyrrolidinyl)phenyl)benzimidazole] | 171 to 172 °C
59 | CN1CCCC(c2cccc(-n3cnc4cc(C=NO)ccc43)c2)C1 (stereo not drawn) [compound 3b4, 5-Formyl-1-(3-(1-methyl-3-piperidinyl)phenyl)benzimidazole oxime] | 214 to 218 °C
60 | CCON=C(C)c1ccc2c(c1)ncn2-c1cccc(C2CCCN(C)C2)c1.Cl (stereo not drawn) [compound 3f7, 5-acetyl-1-(3-(1-methylpiperidin-3-yl)phenyl)benzimidazole O-ethyl oxime hydrochloride] | 112 to 114 °C
61 | OCCN1CCN(c2cccc(-n3cnc4cc(-c5ccoc5)ccc43)c2)CC1 [compound 3i3, 5-(3-Furanyl)-1-(3-(4-(2-hydroxyethyl)piperazin-1-yl)phenyl)benzimidazole] | 137 to 140 °C
62 | CCOC(=O)c1ccc2c(c1)ncn2-c1cccc(N2CCN(CC(=O)OC)CC2)c1.Cl [compound 4a5, 5-(Ethoxycarbonyl)-1-(3-(4-(methoxycarbonylmethyl)piperazin-1-yl)phenyl)-benzimidazole, hydrochloride] | 185 to 186 °C
63 | COC(=O)Cc1ccc2c(c1)ncn2-c1cccc(N2CCN(C)CC2)c1.Cl [compound 4l1, 5-(Methoxycarbonylmethyl)-1-(3-(4-methylpiperazin-1-yl)phenyl)benzimidazole, hydrochloride] | 140 to 142 °C
64 | CC(=O)c1ccc2c(c1)ncn2-c1cccc(C(=NOC(C)C)OCc2ccccn2)c1 [compound 5a3, 5-Acetyl-1-(3-(2-picolyloxycarbonyl)phenyl)benzimidazole O-i-propyl oxime] | 104 to 106 °C
65 | CCON=C(CC1CCN(c2cccc(-n3cnc4cc(C(C)=O)ccc43)c2)CC1)OCC [compound 5d2, 5-Acetyl-1-(3-(4-(ethoxycarbonylmethyl)piperidin-1-yl)phenyl)benzimidazole O-ethyl oxime] | 119 to 120 °C

Target: benzodiazepine receptor sites (GABAA receptor complex)
Experiment: In vitro inhibition of 3H-flunitrazepam (3H-FNM) binding, cerebral cortex membranes
Settings: inhibition of specific binding of 3H-FNM (1 nM), rat cerebral cortex membranes, 40 min at 2° C.
Description: The affinity of various potential ligands for the benzodiazepine receptor sites can thus be evaluated by estimating the ability of test compounds to displace ^3H-flunitrazepam.
Tissue Preparation: Preparations are performed at 0-4° C. unless otherwise indicated.
Cerebral cortex from male Wistar rats (150-200 g) is homogenized for 5-10 sec in 20 ml Tris-HCl (30 mM, pH 7.4) using an Ultra-Turrax homogenizer. The suspension is centrifuged at 27,000×g for 15 min, and the pellet is washed three times with buffer (centrifuged at 27,000×g for 10 min). The washed pellet is homogenized in 20 ml of buffer and incubated on a water bath (37° C.) for 30 min to remove endogenous GABA and then centrifuged for 10 min at 27,000×g. The pellet is then homogenized in buffer and centrifuged for 10 min at 27,000×g. The final pellet is resuspended in 30 ml buffer and the preparation is frozen and stored at −20° C.
Assay: The membrane preparation is thawed and centrifuged at 2° C. for 10 min at 27,000×g. The pellet is washed twice with 20 ml 50 mM Tris-citrate, pH 7.1 using an Ultra-Turrax homogenizer and centrifuged for 10 min at 27,000×g. The final pellet is resuspended in 50 mM Tris-citrate, pH 7.1 (500 ml buffer per g of original tissue), and then used for binding assays. Aliquots of 0.5 ml tissue are added to 25 μl of test solution and 25 μl of ^3H-FNM (1 nM, final concentration), mixed and incubated for 40 min at 2° C. Non-specific binding is determined using clonazepam (1 μM, final concentration). After incubation the samples are added 5 ml of ice-cold buffer and poured directly onto Whatman GF/C glass fibre filters under suction and immediately washed with 5 ml ice-cold buffer. The amount of radioactivity on the filters is determined by conventional liquid scintillation counting. Specific binding is total binding minus non-specific binding.
The test value is calculated as the IC50 (the concentration (nM) of the test substance which inhibits the specific binding of ^3H—FNM by 50%).

Row | SMILES | pIC50
66 | N#Cc1ccc2c(c1)ncn2-c1cccc(N2CCCC2)c1 [compound 3a2, 5-Cyano-1-(3-(1-pyrrolidinyl)phenyl)benzimidazole] | 7.39
67 | CN1CCCC(c2cccc(-n3cnc4cc(C=NO)ccc43)c2)C1 (stereo not drawn) [compound 3b4, 5-Formyl-1-(3-(1-methyl-3-piperidinyl)phenyl)benzimidazole oxime] | 8.40
68 | CCON=C(C)c1ccc2c(c1)ncn2-c1cccc(C2CCCN(C)C2)c1.Cl (stereo not drawn) [compound 3f7, 5-acetyl-1-(3-(1-methylpiperidin-3-yl)phenyl)benzimidazole O-ethyl oxime hydrochloride] | 7.74
69 | OCCN1CCN(c2cccc(-n3cnc4cc(-c5ccoc5)ccc43)c2)CC1 [compound 3i3, 5-(3-Furanyl)-1-(3-(4-(2-hydroxyethyl)piperazin-1-yl)phenyl)benzimidazole] | 8.30
70 | CCOC(=O)c1ccc2c(c1)ncn2-c1cccc(N2CCN(CC(=O)OC)CC2)c1.Cl [compound 4a5, 5-(Ethoxycarbonyl)-1-(3-(4-(methoxycarbonylmethyl)piperazin-1-yl)phenyl)-benzimidazole, hydrochloride] | 7.30
71 | CN1CCCC(c2cccc(-n3cnc4cc(C(=O)OCc5cccnc5)ccc43)c2)C1 (stereo not drawn) [compound 4h, 5-(3-Picolyloxycarbonyl)-1-(3-(1-methylpiperidin-3-yl)phenyl)benzimidazole] | 7.10
72 | COC(=O)Cc1ccc2c(c1)ncn2-c1cccc(N2CCN(C)CC2)c1.Cl [compound 4l1, 5-(Methoxycarbonylmethyl)-1-(3-(4-methylpiperazin-1-yl)phenyl)benzimidazole, hydrochloride] | 7.60
